In US8470839B2, “N1-acyl-5-fluoropyrimidinone derivatives” (Dow Agrosciences, LLC., priority 2009, dated 2013):
Like-named read-outs stand apart in the source and are kept apart here.

Legend:
[1] = system: Mycosphaerella graminicola; Anamorph: Septoria tritici; Bayer Code SEPTTR; assay: Evaluation of fungicidal activity: leaf blotch of wheat, greenhouse wheat plants inoculated with Septoria tritici; format: in vivo; settings: Zymoseptoria tritici
Experimental: Evaluation of Fungicidal Activity: Leaf Blotch of Wheat (Mycosphaerella graminicola; Anamorph: Septoria tritici; Bayer Code […]) Wheat plants (variety Yuma) were grown from seed in a greenhouse in 50% mineral soil/50% soil-less Metro mix until the first leaf was fully emerged, with 7-10 seedlings per pot. These plants were inoculated with an aqueous spore suspension of Septoria tritici either prior to or after fungicide treatments. After inoculation the plants were kept in 100% relative humidity (one day in a dark dew chamber followed by two to three days in a lighted dew chamber) to permit spores to germinate and infect the leaf. The plants were then transferred to a greenhouse for disease to develop. The following table presents the activity of typical compounds of the present disclosure when evaluated in these experiments. The effectiveness of the test compounds in controlling disease was determined by assessing the severity of disease on treated plants, then converting the severity to percent control based on the level of disease on untreated, inoculated plants. In each case of Table II the rating scale is as follows: […]

[2] = 24 h, One-Day Protectant (1DP), 100 ppm, wheat leaf blotch, percent control vs untreated inoculated plants, read-out: SEPTTR 100 PPM 1DP (% Disease Control rating)
[3] = 72 h, Three-Day Curative (3DC), 100 ppm, wheat leaf blotch, percent control vs untreated inoculated plants, read-out: SEPTTR 100 PPM 3DC (% Disease Control rating)

Row | melting point | SMILES | pest or weed control at 100 ppm [1, 2] | pest or weed control at 100 ppm [1, 3] | pest or weed control at 100 ppm ([1]; 24 h, read-out: SEPTTR 100 PPM 1DP (% Disease Control rating)) | pest or weed control at 100 ppm ([1]; 72 h, read-out: SEPTTR 100 PPM 3DC (% Disease Control rating))
1 | 130 to 132 °C | CN(C)/C=N/c1nc(=O)n(C(=O)c2ccc(F)c(F)c2)cc1F [Compound 11] | 76 to 100% | 76 to 100% |  | 
2 | 122.8 to 123.6 °C | CC(=O)Nc1nc(=O)n(C(=O)c2ccccc2)cc1F [Compound 22] |  |  |  | 
3 | 228.3 to 229.7 °C | Nc1nc(=O)n(C(=O)c2ccccc2F)cc1F [Compound 16] | 76 to 100% | 76 to 100% |  | 
4 | 150 to 152 °C | Nc1nc(=O)n(C(=O)c2ccc(F)c(F)c2)cc1F [Compound 20] | 76 to 100% | 76 to 100% |  | 
5 | 120 to 150 °C | Cc1cccc(C)c1C(=O)n1cc(F)c(/N=C/N(C)C)nc1=O [Compound 2, N′-[1-(2,6-dimethylbenzoyl)-5-fluoro-2-oxo-1,2-dihydro-pyrimidin-4-yl]-N,N-dimethylformamidine] | 76 to 100% | 76 to 100% |  | 
6 | 146.9 to 148.2 °C | CC(=O)Nc1nc(=O)n(C(=O)c2ccc(C)cc2)cc1F [Compound 21, N-(5-fluoro-1-(4-methylbenzoyl)-2-oxo-1,2-dihydropyrimidin-4-yl)acetamide] |  |  |  | 
7 | 128.8 to 130.5 °C | Cc1ccc(C(=O)n2cc(F)c(/N=C/N(C)C)nc2=O)cc1 [Compound 9] | 76 to 100% | 76 to 100% |  | 
8 | 128 to 130 °C | CC(C)=CC(=O)n1cc(F)c(/N=C/N(C)C)nc1=O [Compound 6] | 76 to 100% | 76 to 100% |  | 
9 | 125 to 130 °C (dec.) | CC(=O)n1cc(F)c(/N=C/N(C)C)nc1=O [Compound 1, N′-(1-acetyl-5-fluoro-2-oxo-1,2-dihydropyrimidin-4-yl)-N,N-dimethylformamidine] | 76 to 100% | 76 to 100% |  | 
10 | 95.3 to 97.7 °C | CN(C)/C=N/c1nc(=O)n(C(=O)c2cccc(Cl)c2)cc1F [Compound 12] |  |  |  | 
11 |  | Cc1ccc(C(=O)n2cc(F)c(/N=C/N(C)C)nc2=O)c(C)c1 [Compound 5] | 76 to 100% | 76 to 100% |  | 
12 | 129.5 to 131 °C | CC(=O)Nc1nc(=O)n(C(=O)c2cccc(Cl)c2)cc1F [Compound 23] |  |  |  | 
13 |  | CN(C)/C=N/c1nc(=O)n(C(=O)c2ccc(Cl)cc2Cl)cc1F [Compound 4] | 76 to 100% | 76 to 100% |  | 
14 | 257 to 259.5 °C | Cc1ccc(C(=O)n2cc(F)c(N)nc2=O)cc1 [Compound 17] | 76 to 100% | 76 to 100% |  | 
15 | 154.8 to 156.5 °C | CN(C)/C=N/c1nc(=O)n(C(=O)c2cccs2)cc1F [Compound 10] | 76 to 100% | 76 to 100% |  | 
16 | 213.2 to 215.3 °C | Nc1nc(=O)n(C(=O)c2ccccc2)cc1F [Compound 14] | 76 to 100% | 76 to 100% |  | 
17 | 137.3 to 139 °C | CN(C)/C=N/c1nc(=O)n(C(=O)c2ccccc2)cc1F [Compound 7] | 76 to 100% | 76 to 100% |  | 
18 | 257.9 to 259.6 °C | COc1ccc(C(=O)n2cc(F)c(N)nc2=O)cc1 [Compound 15] | 76 to 100% | 76 to 100% |  | 
19 | 126.2 to 128.3 °C | COc1ccc(C(=O)n2cc(F)c(/N=C/N(C)C)nc2=O)cc1 [Compound 8] | 76 to 100% | 76 to 100% |  | 
20 |  | Nc1nc(=O)n(C(=O)c2cc(F)cc(F)c2)cc1F [Compound 13, 4-amino-1-(3,5-difluorobenzoyl)-5-fluoro-1H-pyrimidin-2-one] | 76 to 100% | 76 to 100% |  | 
21 | 170 to 172 °C | COc1ccc(C(=O)n2cc(F)c(N)nc2=O)cc1OC [Compound 18] | 76 to 100% | 76 to 100% |  | 
22 | 223.1 to 225.2 °C | Nc1nc(=O)n(C(=O)c2ccsc2)cc1F [Compound 19] | 76 to 100% | 76 to 100% |  | 

Row | SMILES | melting point | pest or weed control at 100 ppm [1, 2] | pest or weed control at 100 ppm [1, 3] | pest or weed control at 100 ppm ([1]; 24 h, read-out: SEPTTR 100 PPM 1DP (% Disease Control rating)) | pest or weed control at 100 ppm ([1]; 72 h, read-out: SEPTTR 100 PPM 3DC (% Disease Control rating))
23 | CN(C)/C=N/c1nc(=O)n(C(=O)c2c(Cl)cccc2Cl)cc1F [Compound 3, N′-[1-(2,6-dichlorobenzoyl)-5-fluoro-2-oxo-1,2-dihydro-pyrimidin-4-yl]-N,N-dimethylformamidine] | 185 to 187 °C |  |  | 51 to 75% | 76 to 100%
